According to PMC9112550, “Optimization of the antimicrobial peptide Bac7 by deep mutational scanning” (BMC Biology, 2022):
Values joined by “and” are separate entries in the source; they are usually repeats but may differ in a detail not shown here. Equal entries are not always repeated. Where no end group is shown, it is not given here.

How the values were obtained:
bacteria = details: cited from earlier work
Source text: One of the most intensively researched proline-rich AMPs is bactenecin-7 (Bac7). It is a 60 amino acid long linear peptide that was first isolated from bovine neutrophils. […] Measuring the antimicrobial activity of heavily mutated variants was valuable to determine the sequence-activity relationship of Bac7_1-23 because (i) the activity of specific amino acid res ... || Bac7PS excelled over Bac7_1-23 in terms of antimicrobial activity against clinical isolates including MDR bacteria and a decreased dependency on the SbmA transporter (Fig. 4a; Table 2). […] We mainly attribute the activity gain to the increased ability to penetrate membranes, which was accompanied by a slight increase in membrane damage at higher concentrations compared to Bac7_1-23 (Fig. 4b; Additional file 1 ...

bacterial membranes = details: cited from earlier work
Experimental: We next investigated whether an increased propensity to damage membranes could be the reason for the improved antimicrobial activity of Bac7PS. Membrane damage is the most frequent way AMPs kill bacteria and is often considered the reason for high toxicity against eukaryotic cells. […] Consequently, we investigated if Bac7PS had acquired a tendency to damage membranes, which could imply a greater risk for systemic human applications. Cell damage was assessed by measuring leakage of green fluorescent protein (GFP), ex ...

E. coli TOP10 [1] = test: Membrane damage assay in MHB II (GFP loss, PI uptake); assay type: cell-based; details: at the MIC up to 8-fold higher concentrations, n = 3
[2] = tested on: E. coli clinical isolates; assay type: cell-based; details: clinical isolates of E. coli (n=45) including MDR (ESBL, CRE); MHB II; 18 h, 37°C
Experimental: (§1) Bacterial cells were grown in cation-adjusted Mueller Hinton Broth (MHB II) overnight to stationary phase. The cultures were then supplemented with 200 g l^−1 glycerol, aliquoted, and frozen at −80°C. […] The purified peptides were thawed and the concentration was determined by RP-HPLC as described before. The peptides were diluted with sterile water to 4-fold the desired assays starting concentration and to a final volume of 50 μl. […] The first well of each MIC dilution series was filled with 20 μl of 2-fold concentrated MHB II, wells 2–11 with 20 μl of MHB II, and well 12 with 40 μl MHB II (sterility control). Next, 20 μl of the peptide dilution was added to the first well, mixed, and a log2-serial dilution was performed from wells 1 to 10 (20 μl transfer volume). Well 11 served as growth control (i.e., no peptide added). In the last step, 20 μl of the bacterial cell suspension was added to wells 1–11 either using the pipetting robot (E. coli TOP10, BW25113, BW25113 ΔsbmA, and ATCC 25922) or by manual pipetting (E. coli clinical isolates). The plates were sealed airtight and incubated for 18 h without shaking at 37°C before reading the OD using an Infinite 200 PRO plate reader (Tecan, Männedorf, CH). The MIC value corresponded to the concentration at which no growth of the bacterial strain was observed (< 5% of the OD value of the growth control) and was evaluated using a custom-written script in the programming language R. MIC values of E. coli TOP10, BW25113, BW25113 ΔsbmA, and ATCC 25922 were determined at least in biological triplicates. All MIC experiments were determined in technical replicate.

E. coli TOP10 [3] = assay type: cell-based; details: MHB II, 18 h, 37°C, averaged (n>3), <5% of OD of growth control
Experimental: as §1

E. coli BW25113 ΔsbmA = assay type: cell-based
Experimental: as §1

E. coli BW25113 = assay type: cell-based; details: E. coli BW25113 parental strain; MHB II; 18 h, 37°C; averaged (n>3)
Experimental: as §1

E. coli ATCC 25922 = assay type: cell-based; details: E. coli ATCC 25922 quality control strain; MHB II; 18 h, 37°C; averaged (n>3)
Experimental: as §1

HeLa cells = test: In vitro toxicity assay (MTT), HeLa; assay type: cell-based, human
Experimental: (§2) HeLa epithelioid cervix carcinoma cells (originally purchased: 93021013, Sigma Aldrich) and HEK 293 human embryonic kidney (originally purchased: 85120602, Sigma Aldrich) were routinely cultivated in Dulbecco’s MEM high glucose (DMEM, with L-glutamine, without phenol red, 1-26P32, Bioconcept, Allschwil, CH), supplemented with 10% fetal bovine serum (heat inactivated, sterile filtered, F9665, Sigma Aldrich) and 100 IU ml^−1/100 μg ml^−1 Penicillin/streptomycin (4-01F00, Bioconcept) at 37°C with 5% CO2. Cells were split at a confluency of ≤ 90% (every 3 to 4 days) and maintained for max. 10 passages before a fresh aliquot of cells were seeded. […] The cell concentration was determined using a Countess 2 device (Thermo Fisher Scientific) and approx. 5000 (HeLa) or 25,000 (HEK 293) cells were seeded into wells of a 96-well plate (F-bottom, PS, 655180, Greiner) together with 100 μl DMEM. […] For each dilution series, the IC50 value was determined by computing a weighted n-parameters logistic regression using the “nplr” package in R (https://CRAN.R-project.org/package=nplr). […]

mouse red blood cells = test: Hemolysis assay; assay type: cell-based; details: 1 h, 37°C, DPBS, relative to Triton-X100 lysis control, triplicates
Experimental: Mouse blood was obtained from the ETH Phenomics Center. The erythrocytes were isolated by centrifugation at 500 × g for 10 min and removal of the blood plasma. The cells were washed three times by gently resuspending them in an equal volume of DPBS followed by centrifugation. After the last resuspension, the cells were diluted 1:50 in DPBS. For the hemolysis assay, a log2-serial dilution of each peptide was prepared as described for the MIC but using DPBS and 96-well plates (U-bottom, PP, 650201, Greiner) with a final volume of 100 μl. As lysis control, 2.5% Triton-X100 in DPBS was used in well 10, well 11 served as non-treated control (no peptide added), and well 12 as blank. To each well of the dilution plate, 100 μl of the red blood cells suspension was added. The plate was incubated for 1 h at 37°C. After incubation, the plate was centrifuged at 500 × g for 10 min and 100 μl of the supernatant was transferred to a clean 96-well plate (F-bottom, PS, 655101, Greiner). The absorbance was measured at 540 nm using an Infinite M1000 PRO plate reader (Tecan) and corrected by the measurements from the untreated wells. The lysis of each peptide concentration was expressed relative to the lysis control (set as 100% lysis). The hemolysis assay was performed in biological triplicates.

HEK 293 cells = assay type: cell-based, human; details: MTT, 24 h, 37°C, triplicates, read-out: Toxicity IC50
Experimental: as §2

For “Bac7: 60 amino acid long linear peptide first isolated from bovine neutrophils”, the “activity against species of Gram-negative Enterobacteriaceae” value (bacteria) is given as “high activity” and the “damage of bacterial membranes at its MIC” value (bacterial membranes) is given as “not damage bacterial membranes”.

For RRIRPRPPRLPRPRPRPLPFPRP [Bac7_1-23], the PI-positive cells (E. coli TOP10 [1]) was ~ 1%, the “cells that retained GFP levels” value (E. coli TOP10 [1]) was ~ 99% and the MIC50 [2] was 7.5 µM. For the same substance, the MIC (E. coli TOP10 [3]) was 4.6 µM, the “antimicrobial activity against the SbmA transporter knockout strain” value (E. coli BW25113 ΔsbmA) was “largely inactive” and the MIC (E. coli BW25113 ΔsbmA; MHB II, 18 h, 37°C, averaged (n>3)) was 52.1 µM. For the same substance, the MIC (E. coli BW25113) was 7.4 µM, the MIC (E. coli ATCC 25922) was 2.8 µM and the IC50 (HeLa cells; HeLa, MTT, 24 h, 37°C, triplicates) was 1.46 mM. For the same substance, the “therapeutic index (TI), Toxicity/MIC” value (HeLa cells; IC50 HeLa divided by MIC50 from clinical isolates) was 195, the “Hemolysis of mouse red blood cells” value (mouse red blood cells; 1xMIC (MIC measured for E. coli ATCC 25922)) was < 4% and 2.1% and the “Hemolysis of mouse red blood cells” value (mouse red blood cells; 4xMIC (MIC measured for E. coli ATCC 25922)) was < 7% and 6.4%. For the same substance, the IC50 (HEK 293 cells) was 1.97 mM.
